From ChEMBL document CHEMBL3286208, “Pyranocoumarins from Glehnia littoralis inhibit the LPS-induced NO production in macrophage RAW 264.7 cells” (Bioorg Med Chem Lett, 2014)

Columns and labels:
[1] = Cytotoxicity against mouse RAW264.7 cells assessed as cell viability at 0.5 to 50 uM; format: cell-based; settings: read-out: Activity
[2] = test system: RAW264.7; test: Inhibition of LPS-induced NO production in mouse RAW264.7 cells after 24 hrs by Griess method; format: functional, cell-based; settings: RAW264.7, 24 h

SMILES | IC50 [2] [µM] | viability at up to 50 µM [1] [%]
CC(C)C(=O)O[C@H]1c2c(ccc3ccc(=O)oc23)OC(C)(C)[C@H]1OC(=O)C(C)C | 28.2 | > 90
CC(=O)O[C@H]1c2c(ccc3ccc(=O)oc23)OC(C)(C)[C@H]1OC(=O)C=C(C)C | 44.3 | > 90
CC(C)=CC(=O)O[C@H]1c2c(ccc3ccc(=O)oc23)OC(C)(C)[C@H]1OC(=O)C=C(C)C | 9.8 | > 90
N=C(N)NN [PIMAGEDINE] | 16.9 | 

Continued, in another order:

IC50 [2] [µM] | SMILES | viability at up to 50 µM [1] [%]
18.8 | CC(=O)O[C@H]1c2c(ccc3ccc(=O)oc23)OC(C)(C)[C@H]1OC(=O)CC(C)C | > 90
7.4 | CC(C)CC(=O)O[C@H]1c2c(ccc3ccc(=O)oc23)OC(C)(C)[C@H]1OC(=O)CC(C)C | > 90
9.9 | CC(C)=CC(=O)O[C@H]1c2c(ccc3ccc(=O)oc23)OC(C)(C)[C@H]1OC(=O)CC(C)C | > 90
